Test results published in the CheMixHub viscosity set.

Test: xn = mol fraction of the nth substance listed

Cc1ccccc1C + CC1COC(=O)O1
303.15 K, 101.3 kPa
Settings	viscosity [mPa·s]
x2 = 0.1383	0.8178
x2 = 0.2653	0.9124
x2 = 0.3824	1.011
x2 = 0.4906	1.12
x2 = 0.5909	1.244
x2 = 0.6842	1.384
x2 = 0.7712	1.547
x2 = 0.8525	1.733
x2 = 0.9286	1.937

CCC#N + CC#N
298 K, 101.33 kPa
Settings	viscosity [mPa·s]
x1 = 0.1298	0.35
x1 = 0.2716	0.36
x1 = 0.4271	0.374
x1 = 0.5986	0.384
x1 = 0.7885	0.402

CCCCCCCCCCO + CC#N
viscosity [mPa·s], 101 kPa
Settings	298.15 K	303.15 K	308.15 K
x2 = 0.0939	8.794	7.622	6.471
x2 = 0.2005	6.554	5.66	4.934
x2 = 0.301	4.932	4.226	3.648
x2 = 0.3902	3.872	3.394	2.877
x2 = 0.4935	2.848	2.467	2.15
x2 = 0.6249	1.83	1.678	1.441
x2 = 0.7216	1.302	1.189	1.053
x2 = 0.7933	1.021	0.864	0.777
x2 = 0.8544	0.79	0.636	0.586
x2 = 0.9006	0.548	0.51	0.479
x2 = 0.9382	0.46	0.431	0.411
x2 = 0.9708	0.395	0.379	0.358

CCC#N + CC(=O)N(C)C
303.15 K, 101.33 kPa
Settings	viscosity [mPa·s]
x1 = 0.0953	0.8264
x1 = 0.2	0.7648
x1 = 0.3021	0.7092
x1 = 0.3926	0.6613
x1 = 0.4985	0.6082
x1 = 0.595	0.5621
x1 = 0.699	0.5131
x1 = 0.795	0.4684
x1 = 0.9013	0.425

CCOC(=O)OCC + CC(=O)N(C)C
298.15 K, 101 kPa
Settings	viscosity [mPa·s]
x1 = 0.1371	0.925
x1 = 0.2045	0.912
x1 = 0.2821	0.896
x1 = 0.3603	0.881
x1 = 0.4462	0.865
x1 = 0.5333	0.849
x1 = 0.6265	0.831
x1 = 0.7265	0.811
x1 = 0.7839	0.8
x1 = 0.8296	0.79
x1 = 0.8887	0.778

CC(C)[C@@H]1CC[C@@H](C)C[C@H]1O + CC(=O)O
100 kPa, x1 = 0.5
Settings	viscosity [mPa·s]
293.15 K	11.3
298.15 K	8.691
303.15 K	6.904
308.15 K	5.59
313.15 K	4.564
318.15 K	3.843
323.15 K	3.251

CCC#N + CC(C)(C)O
viscosity [mPa·s], 101 kPa
Settings	x2 = 0.0744	x2 = 0.1541	x2 = 0.2403	x2 = 0.3272	x2 = 0.4258	x2 = 0.5242	x2 = 0.6146	x2 = 0.7448	x2 = 0.8667
298.15 K	0.4226	0.4462	0.4934	0.5641	0.6672	0.8059	1.024	1.526	2.346
303.15 K	0.4138	0.4431	0.487	0.5397	0.6276	0.739	0.9208	1.34	2.022
308.15 K	0.3997	0.4317	0.4754	0.5219	0.5918	0.6821	0.8394	1.186	1.741

Cc1ccccc1C + CC(C)(C)O
308.15 K, 101 kPa
Settings	viscosity [mPa·s]
x2 = 0.0632	0.669
x2 = 0.1246	0.679
x2 = 0.204	0.677
x2 = 0.2992	0.674
x2 = 0.3725	0.731
x2 = 0.4258	0.777
x2 = 0.4948	0.814
x2 = 0.5942	0.908
x2 = 0.6887	1.028
x2 = 0.7935	1.376
x2 = 0.9065	1.962

OCCOCCOCCO + CC(C)=O
298.1 K, 101 kPa
Settings	viscosity [mPa·s]
x1 = 0.2	1.038
x1 = 0.4	2.75
x1 = 0.5	4.48
x1 = 0.6	7.168
x1 = 0.8	17.04

c1ccc(Oc2ccccc2)cc1 + CC(C)=O
298.15 K, 101 kPa
Settings	viscosity [mPa·s]
x2 = 0.4843	1.339
x2 = 0.7306	0.714
x2 = 0.894	0.439

Cc1ccccc1C + CC(C)CC(C)(C)C
308.15 K, 101 kPa
Settings	viscosity [mPa·s]
x2 = 0.1337	0.6095
x2 = 0.2492	0.5663
x2 = 0.3373	0.539
x2 = 0.4352	0.5141
x2 = 0.5589	0.4878
x2 = 0.6421	0.4734
x2 = 0.7365	0.4602
x2 = 0.8167	0.4525
x2 = 0.917	0.4417

Cc1ccccc1C + CC(C)CO
308.15 K, 101 kPa
Settings	viscosity [mPa·s]
x2 = 0.0649	0.669
x2 = 0.1278	0.681
x2 = 0.2187	0.684
x2 = 0.3335	0.77
x2 = 0.4418	0.851
x2 = 0.5688	0.986
x2 = 0.6291	1.064
x2 = 0.7214	1.215
x2 = 0.8196	1.486
x2 = 0.9023	1.835
x2 = 0.9616	2.245
